Where two headings read alike, the source gives them in different places.
What was measured:
[1] = target: p110γ (Homo sapiens (Human), UniProt P48736); assay: PI 3-Kinase (human) HTRF assay, p110γ; type: biochemical
[2] = target: p110δ/p85α (Homo sapiens (Human), UniProt O00329); assay: PI 3-Kinase (human) HTRF assay, p110δ/p85α; type: biochemical
[3] = target: p110β/p85α (Homo sapiens (Human), UniProt P42338); assay: PI 3-Kinase (human) HTRF assay, p110β/p85α; type: biochemical
[4] = test system: tumor cells with a PI3Kα mutation (e.g., MDA-MB-361 and T47D); assay: Proliferation of tumor cells with PI3Kα mutation; type: cell-based; conditions: Homo sapiens
[5] = target: p110α/p85α (Homo sapiens (Human), UniProt P42336); assay: PI 3-Kinase (human) HTRF assay, p110α/p85α; type: biochemical
[6] = in vitro, read-out: PI3K γ IC50
[7] = in vitro, read-out: PI3K δ IC50
[8] = in vitro, read-out: PI3K β IC50
[9] = T47D cells, read-out: T47D proliferation IC50
[10] = in vitro, read-out: PI3K α IC50
[11] = PC3, read-out: PC3 proliferation In Vitro IC50

Sequence of p110δ/p85α (O00329 whole entry): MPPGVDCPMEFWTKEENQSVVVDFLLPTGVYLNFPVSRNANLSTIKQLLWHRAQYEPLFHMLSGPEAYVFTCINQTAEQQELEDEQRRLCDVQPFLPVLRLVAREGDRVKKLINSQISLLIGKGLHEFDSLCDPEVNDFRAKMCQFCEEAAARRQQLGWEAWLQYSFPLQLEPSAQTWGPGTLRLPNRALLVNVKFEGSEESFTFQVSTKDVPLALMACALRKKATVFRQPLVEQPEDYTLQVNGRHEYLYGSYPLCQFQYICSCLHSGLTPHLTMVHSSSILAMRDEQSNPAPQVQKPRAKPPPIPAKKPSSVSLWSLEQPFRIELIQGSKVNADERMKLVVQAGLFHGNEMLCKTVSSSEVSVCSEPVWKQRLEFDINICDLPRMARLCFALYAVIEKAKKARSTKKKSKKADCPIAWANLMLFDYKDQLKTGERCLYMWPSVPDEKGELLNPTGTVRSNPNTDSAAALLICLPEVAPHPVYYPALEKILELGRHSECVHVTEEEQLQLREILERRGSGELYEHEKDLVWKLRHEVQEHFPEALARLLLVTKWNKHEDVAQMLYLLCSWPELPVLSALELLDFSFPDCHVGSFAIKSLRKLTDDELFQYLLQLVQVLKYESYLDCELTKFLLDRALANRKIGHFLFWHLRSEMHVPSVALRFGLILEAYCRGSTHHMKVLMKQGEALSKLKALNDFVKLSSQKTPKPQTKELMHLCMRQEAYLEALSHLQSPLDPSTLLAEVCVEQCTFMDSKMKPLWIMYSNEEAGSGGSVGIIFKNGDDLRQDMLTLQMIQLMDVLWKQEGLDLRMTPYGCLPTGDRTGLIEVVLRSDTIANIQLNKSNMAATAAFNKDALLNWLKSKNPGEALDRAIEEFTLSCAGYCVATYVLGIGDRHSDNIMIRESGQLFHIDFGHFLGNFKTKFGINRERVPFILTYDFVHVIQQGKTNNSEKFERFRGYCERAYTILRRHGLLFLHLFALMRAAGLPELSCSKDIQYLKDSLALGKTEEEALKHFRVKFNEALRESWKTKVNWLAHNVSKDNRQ
Sequence of p110δ/p85α (P27986 whole entry partner): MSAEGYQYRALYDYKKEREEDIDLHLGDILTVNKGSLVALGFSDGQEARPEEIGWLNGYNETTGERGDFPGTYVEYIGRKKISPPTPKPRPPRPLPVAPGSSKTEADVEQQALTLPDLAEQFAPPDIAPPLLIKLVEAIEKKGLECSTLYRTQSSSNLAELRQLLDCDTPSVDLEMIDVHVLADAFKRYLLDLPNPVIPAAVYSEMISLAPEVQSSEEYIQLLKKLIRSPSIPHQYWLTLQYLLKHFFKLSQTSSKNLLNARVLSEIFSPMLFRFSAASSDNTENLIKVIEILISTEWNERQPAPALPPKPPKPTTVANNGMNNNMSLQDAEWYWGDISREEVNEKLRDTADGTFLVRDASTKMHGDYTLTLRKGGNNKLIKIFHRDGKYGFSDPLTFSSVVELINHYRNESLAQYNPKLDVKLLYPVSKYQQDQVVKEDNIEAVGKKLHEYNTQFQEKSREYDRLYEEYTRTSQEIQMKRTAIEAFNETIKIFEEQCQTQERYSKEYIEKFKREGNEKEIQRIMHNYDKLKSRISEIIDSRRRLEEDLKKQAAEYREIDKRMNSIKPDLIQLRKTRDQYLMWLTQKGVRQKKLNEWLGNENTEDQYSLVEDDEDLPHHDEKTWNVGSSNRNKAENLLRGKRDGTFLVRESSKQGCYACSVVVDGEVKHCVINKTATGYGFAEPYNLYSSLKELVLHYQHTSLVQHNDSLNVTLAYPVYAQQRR
Sequence of p110γ (P48736 whole entry): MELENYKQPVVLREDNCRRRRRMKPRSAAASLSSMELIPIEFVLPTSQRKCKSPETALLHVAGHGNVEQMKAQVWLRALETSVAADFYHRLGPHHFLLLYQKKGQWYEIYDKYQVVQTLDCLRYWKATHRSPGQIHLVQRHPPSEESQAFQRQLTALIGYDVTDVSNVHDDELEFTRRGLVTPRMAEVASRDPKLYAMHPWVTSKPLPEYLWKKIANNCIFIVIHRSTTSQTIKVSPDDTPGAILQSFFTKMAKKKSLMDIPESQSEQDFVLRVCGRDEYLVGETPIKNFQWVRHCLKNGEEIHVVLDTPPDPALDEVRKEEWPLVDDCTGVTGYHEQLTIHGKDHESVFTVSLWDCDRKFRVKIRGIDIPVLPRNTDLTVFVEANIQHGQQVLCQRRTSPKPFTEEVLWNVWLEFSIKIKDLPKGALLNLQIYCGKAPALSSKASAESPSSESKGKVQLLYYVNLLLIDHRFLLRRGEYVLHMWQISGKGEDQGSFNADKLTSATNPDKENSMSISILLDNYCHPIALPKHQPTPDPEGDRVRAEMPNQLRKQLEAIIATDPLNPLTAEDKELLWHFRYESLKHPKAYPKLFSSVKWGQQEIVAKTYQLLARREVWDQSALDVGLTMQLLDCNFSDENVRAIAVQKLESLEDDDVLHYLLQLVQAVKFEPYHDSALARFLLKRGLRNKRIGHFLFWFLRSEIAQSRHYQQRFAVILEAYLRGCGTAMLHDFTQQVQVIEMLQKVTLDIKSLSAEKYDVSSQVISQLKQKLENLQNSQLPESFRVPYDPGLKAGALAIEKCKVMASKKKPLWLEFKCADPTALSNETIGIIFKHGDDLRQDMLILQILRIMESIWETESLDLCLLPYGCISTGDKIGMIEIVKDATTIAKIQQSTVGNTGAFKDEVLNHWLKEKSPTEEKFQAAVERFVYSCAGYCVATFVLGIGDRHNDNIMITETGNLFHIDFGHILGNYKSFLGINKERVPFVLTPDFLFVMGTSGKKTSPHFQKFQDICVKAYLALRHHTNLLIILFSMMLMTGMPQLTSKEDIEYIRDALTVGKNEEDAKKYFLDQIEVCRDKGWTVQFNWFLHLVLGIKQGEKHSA
Sequence of p110α/p85α (P42336 whole entry): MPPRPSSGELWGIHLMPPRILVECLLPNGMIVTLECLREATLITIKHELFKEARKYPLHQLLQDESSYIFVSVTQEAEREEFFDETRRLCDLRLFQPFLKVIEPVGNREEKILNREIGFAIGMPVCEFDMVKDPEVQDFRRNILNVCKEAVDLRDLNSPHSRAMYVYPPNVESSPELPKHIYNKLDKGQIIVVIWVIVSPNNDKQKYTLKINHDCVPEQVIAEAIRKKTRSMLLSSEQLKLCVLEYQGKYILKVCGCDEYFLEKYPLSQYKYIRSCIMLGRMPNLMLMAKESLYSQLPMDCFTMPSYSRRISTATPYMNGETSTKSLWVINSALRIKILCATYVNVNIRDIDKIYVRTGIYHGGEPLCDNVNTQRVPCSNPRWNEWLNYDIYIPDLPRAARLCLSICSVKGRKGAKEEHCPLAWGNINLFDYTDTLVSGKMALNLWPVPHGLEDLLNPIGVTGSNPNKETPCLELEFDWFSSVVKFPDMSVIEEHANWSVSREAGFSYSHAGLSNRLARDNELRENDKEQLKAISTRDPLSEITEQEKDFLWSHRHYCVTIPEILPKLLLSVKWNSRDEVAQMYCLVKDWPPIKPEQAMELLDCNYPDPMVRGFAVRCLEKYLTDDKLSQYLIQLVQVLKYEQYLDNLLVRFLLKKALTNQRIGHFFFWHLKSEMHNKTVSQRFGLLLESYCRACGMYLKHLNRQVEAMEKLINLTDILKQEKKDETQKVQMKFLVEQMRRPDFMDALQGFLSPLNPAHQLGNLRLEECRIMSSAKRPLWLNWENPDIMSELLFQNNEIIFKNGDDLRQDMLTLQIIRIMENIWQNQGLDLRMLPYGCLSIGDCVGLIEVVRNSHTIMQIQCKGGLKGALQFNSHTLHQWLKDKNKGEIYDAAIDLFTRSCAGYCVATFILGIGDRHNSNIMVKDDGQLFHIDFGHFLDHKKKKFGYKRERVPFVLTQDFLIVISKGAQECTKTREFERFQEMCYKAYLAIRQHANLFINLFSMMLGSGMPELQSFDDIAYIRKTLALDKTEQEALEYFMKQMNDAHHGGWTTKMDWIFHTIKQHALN
Sequence of p110α/p85α (P27986 whole entry partner): as the sequence (P27986 whole entry partner) above
Sequence of p110β/p85α (P42338 whole entry): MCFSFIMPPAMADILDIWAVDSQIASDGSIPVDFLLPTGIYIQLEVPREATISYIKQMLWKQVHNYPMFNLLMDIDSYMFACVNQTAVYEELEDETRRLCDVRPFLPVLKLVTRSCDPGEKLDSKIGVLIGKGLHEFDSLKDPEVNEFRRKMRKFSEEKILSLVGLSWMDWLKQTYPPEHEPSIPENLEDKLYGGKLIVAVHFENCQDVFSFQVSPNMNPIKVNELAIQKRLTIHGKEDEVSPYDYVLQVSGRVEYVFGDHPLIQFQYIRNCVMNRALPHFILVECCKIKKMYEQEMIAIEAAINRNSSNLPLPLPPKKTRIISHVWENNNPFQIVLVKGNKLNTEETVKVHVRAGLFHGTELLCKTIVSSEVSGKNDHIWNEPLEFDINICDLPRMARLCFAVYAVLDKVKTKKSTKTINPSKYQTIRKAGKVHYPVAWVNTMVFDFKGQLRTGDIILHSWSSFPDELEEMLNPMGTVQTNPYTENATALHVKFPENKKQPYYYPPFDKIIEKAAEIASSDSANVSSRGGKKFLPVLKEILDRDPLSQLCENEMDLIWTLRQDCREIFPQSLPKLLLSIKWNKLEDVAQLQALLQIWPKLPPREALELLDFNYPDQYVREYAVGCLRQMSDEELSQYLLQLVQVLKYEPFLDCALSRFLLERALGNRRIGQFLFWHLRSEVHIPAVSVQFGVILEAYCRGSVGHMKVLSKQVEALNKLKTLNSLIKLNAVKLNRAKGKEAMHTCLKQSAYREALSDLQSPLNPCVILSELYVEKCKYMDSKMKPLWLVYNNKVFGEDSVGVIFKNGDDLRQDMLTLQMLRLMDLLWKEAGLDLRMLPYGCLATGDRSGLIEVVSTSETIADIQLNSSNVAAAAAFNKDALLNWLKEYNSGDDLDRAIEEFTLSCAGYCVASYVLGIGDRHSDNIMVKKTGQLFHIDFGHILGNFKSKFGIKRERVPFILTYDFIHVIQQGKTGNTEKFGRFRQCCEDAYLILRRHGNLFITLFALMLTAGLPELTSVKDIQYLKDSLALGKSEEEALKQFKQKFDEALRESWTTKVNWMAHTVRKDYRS
Sequence of p110β/p85α (P27986 whole entry partner): as the sequence (P27986 whole entry partner) above

| IC50 [1, 6] | IC50 [2, 7] | IC50 [3, 8] | IC50 [4, 9] | IC50 [5, 10] | IC50 ([1]; read-out: PI3K γ In Vitro IC50) | IC50 ([2]; read-out: PI3K δ In Vitro IC50) | IC50 ([3]; read-out: PI3K β In Vitro IC50) | IC50 [4, 11] | IC50 ([5]; read-out: PI3K α In Vitro IC50) | Structure (SMILES) |
| --- | --- | --- | --- | --- | --- | --- | --- | --- | --- | --- |
| < 10000 nM | < 10000 nM | < 10000 nM | < 1000 nM | < 100 nM | – | – | – | – | – | Nc1nc2cc(-c3ccc4ncc(N5CC(N6CCS(=O)(=O)CC6)C5)nc4c3)ccc2o1 [compound 334] |
| < 10000 nM | < 10000 nM | < 10000 nM | < 10000 nM | < 100 nM | – | – | – | – | – | Cc1cn(C2CCN(c3cnc4ccc(-c5ccc6oc(N)nc6c5)cc4n3)CC2)cn1 [compound 338] |
| < 10000 nM | < 1000 nM | < 10000 nM | < 1000 nM | < 100 nM | – | – | – | – | – | C[C@@H]1CN(C2CN(c3cnc4ccc(-c5ccc6oc(N)nc6c5)cc4n3)C2)CCN1 [compound 355] |
| < 100 nM | < 100 nM | < 100 nM | < 1000 nM | < 100 nM | – | – | – | – | – | Nc1nc2cc(-c3ccn4ncc(-c5ccncc5)c4c3)ccc2o1 [compound 356] |
| – | – | – | – | – | < 100 nM | < 100 nM | < 1000 nM | < 1000 nM | < 100 nM | O=C(c1cnc2ccc(-c3cnc(Cl)c(NS(=O)(=O)c4ccccc4)c3)cn12)N1CCOCC1 [compound 451] |
| – | – | – | – | – | < 100 nM | < 100 nM | < 1000 nM | < 10000 nM | < 100 nM | O=C(c1cnc2ccc(-c3cnc(Cl)c(NS(=O)(=O)c4ccccc4F)c3)cn12)N1CCOCC1 [compound 452] |
| – | – | – | – | – | < 100 nM | < 100 nM | < 100 nM | < 1000 nM | < 100 nM | O=C(c1cnc2ccc(-c3cnc(Cl)c(NS(=O)(=O)c4ccc(F)cc4)c3)cn12)N1CCOCC1 [compound 457] |
| – | – | – | – | – | < 100 nM | < 100 nM | < 100 nM | < 1000 nM | < 100 nM | O=C(c1cnc2ccc(-c3cnc(Cl)c(NS(=O)(=O)c4cccc(F)c4)c3)cn12)N1CCOCC1 [compound 458] |
| – | – | – | – | – | < 100 nM | < 100 nM | < 100 nM | < 1000 nM | < 100 nM | COc1ccc(-c2ccc3ncc(C(=O)N4CCOCC4)n3c2)cc1NS(=O)(=O)c1cccnc1 [compound 462] |
| – | – | – | – | – | < 100 nM | < 10000 nM | < 10000 nM | < 1000 nM | < 100 nM | COC1CN(C(=O)c2cnc3ccc(-c4ccc5oc(N)nc5c4)cn23)C1 [compound 467] |
| – | – | – | – | – | < 1000 nM | < 10000 nM | < 10000 nM | < 10000 nM | < 100 nM | Nc1nc2cc(-c3ccc4ncc(C(=O)N5CC(N6CC[C@H](O)C6)C5)n4c3)ccc2o1 [compound 469] |
| – | – | – | – | – | < 1000 nM | < 10000 nM | < 10000 nM | < 10000 nM | < 100 nM | Nc1nc2cc(-c3ccc4ncc(C(=O)N5CC(N6CC[C@@H](O)C6)C5)n4c3)ccc2o1 [compound 470] |
| – | – | – | – | – | < 1000 nM | < 10000 nM | < 10000 nM | < 10000 nM | < 100 nM | CN(C(=O)c1cnc2ccc(-c3ccc4oc(N)nc4c3)cn12)C1CCOCC1 [compound 472] |
| – | – | – | – | – | < 1000 nM | < 1000 nM | < 10000 nM | < 1000 nM | < 100 nM | Nc1nc2cc(-c3ccc4ncc(C(=O)N5CC[C@H](n6cccn6)C5)n4c3)ccc2o1 [compound 478] |
| – | – | – | – | – | < 10000 nM | < 1000 nM | < 10000 nM | < 1000 nM | < 100 nM | C[C@@H]1CN(C2CN(C(=O)c3cnc4ccc(-c5ccc6oc(N)nc6c5)cn34)C2)CCN1C [compound 508] |
| – | – | – | – | – | < 10000 nM | < 1000 nM | < 10000 nM | < 10000 nM | < 100 nM | C[C@H]1CN(C2CN(C(=O)c3cnc4ccc(-c5ccc6oc(N)nc6c5)cn34)C2)CCN1 [compound 510] |
| – | – | – | – | – | < 10000 nM | < 1000 nM | < 10000 nM | < 10000 nM | < 100 nM | C[C@@H]1CN(C2CN(C(=O)c3cnc4ccc(-c5ccc6oc(N)nc6c5)cn34)C2)CCN1 [compound 511] |
| – | – | – | – | – | < 10000 nM | < 1000 nM | < 10000 nM | < 1000 nM | < 100 nM | C[C@H]1CN(C2CN(C(=O)c3cnc4ccc(-c5ccc6oc(N)nc6c5)cn34)C2)CCN1C [compound 512] |
| – | – | – | – | – | < 1000 nM | < 100 nM | < 10000 nM | < 1000 nM | < 100 nM | CC1(C)CN(C2CN(C(=O)c3cnc4ccc(-c5ccc6oc(N)nc6c5)cn34)C2)CCN1 [compound 515] |
| – | – | – | – | – | < 100 nM | < 100 nM | < 100 nM | < 1000 nM | < 100 nM | COc1ncc(-c2ccc3ncn(C4CCN(C(C)C)CC4)c(=O)c3c2)cc1NS(=O)(=O)c1ccccc1 [compound 522] |
| – | – | – | – | – | < 100 nM | < 100 nM | < 1000 nM | < 10000 nM | < 100 nM | CC(C)N1CCC(n2cnc3ccc(-c4cnc(Cl)c(NS(C)(=O)=O)c4)cc3c2=O)CC1 [compound 523] |
| – | – | – | – | – | < 1000 nM | < 100 nM | < 100 nM | < 1000 nM | < 100 nM | COc1ncc(-c2ccc3ncn(C4CCN(C)CC4)c(=O)c3c2)cc1NS(=O)(=O)c1ccccc1 [compound 524] |

— patent US11547697B2, “Heterocyclic compounds and uses thereof” (MILLENNIUM PHARMACEUTICALS, INC., priority 2009, dated 2023)
